In patent US10190093B2, “Artificial oocyte activation” (The Curators of the University of Missouri, priority 2013, dated 2019):
Several values for one entry are separate records, joined by “and”; a condition that tells them apart may be missing. Equal values may be shown once. Entries after “also recorded” stand apart in the source; their conditions may differ. Marks after values point to notes of the source that are not given here.

Assays:
SCNT embryos = assay: TPEN activation method on the development of SCNT embryos; assay type: cell-based, pig; settings: SCNT embryos activated with TPEN (200 μM, 30 min) as major activating reagent
Description: At the end of the culture, where applicable, the frequency of cleaved embryos and blastocysts, and total cell number in the blastocysts were recorded. Hoechst 33342 (1.2 mg/mL) was used to stain nuclei and the embryos were then evaluated by epi-fluorescence microscopy. Additionally, the effect of the TPEN activation method alone on the development of SCNT embryos was tested.

MII oocytes = assay: Intracellular calcium measurement (fura-2); assay type: cell-based, pig; settings: oocytes exposed to TPEN 5, 10, and 200 μM
Description: The zonae pellucidae were removed after maturation and zona-free oocytes were loaded with the Ca^2+ indicator dye, fura-2. For this purpose, they were incubated in the presence of […] of the acetoxymethyl ester form of the dye and 0.02% pluronic F-127 for 40-50 min (both from Invitrogen). The dye loaded oocytes were transferred into a chamber with a cover-glass bottom and the chamber was then placed on the heated stage of an inverted microscope. Changes in the intracellular free Ca^2+ concentration were recorded using InCytIm2, a dual-wavelength fluorescence imaging system (Intracellular Imaging, Inc.; Cincinnati, Ohio). During measurements the emitted fluorescence was detected at 510 nm after exciting the dye alternately at 340 and 380 nm. The ratio of the two emitted fluorescence intensities was calculated and the data are presented as fluorescence ratio values. Ratios of 1.0 and 5.0 correspond to about 100 and 1,200 nM Ca^2+, respectively. In each treatment group the measurements were repeated at least 5 times using different oocytes.

[1] = tested on: SCNT embryos transferred into surrogate gilt; assay: Embryo transfer, in vivo development competence of SCNT embryos
Description: To address in vivo competency of SCNT embryos activated by utilizing TPEN, a series of embryo transfers were performed. For the study, at day 1, the SCNT-derived embryos were surgically transferred into the ampullary-isthmic junction of a surrogate gilt at 0 or 1 days after observed estrus. At the end of gestation periods, piglets were recovered through C-section.
Six embryo transfers were performed for the study and two surrogates carried their pregnancy to term, each resulting in two healthy piglets (Table 6). One of the term development was from SCNT embryos that were not treated with a HDAC inhibitor, Scriptaid.

porcine oocytes = assay: TPEN as main oocyte activating reagent after a smaller Ca2+ increase (electroporation in 0.1 mM Ca2+); assay type: cell-based, pig; settings: for Day 6 Blastocysts (%) / Day 7 Blastocysts (%): 0.1 mM Ca2+ electroporation
Description: Oocytes were obtained from either pre-pubertal gilt ovaries from an abattoir (Farmland Foods Inc., Milan, Mo.), or sow-derived oocytes that were purchased from Applied Reproductive Technology (Madison, Wis.). Immature oocytes from gilt ovaries were aspirated from medium size (3-6 mm) follicles by using an 18 gauge hypodermic needle attached to a 10 mL syringe. Oocytes with evenly dark cytoplasm and intact surrounding cumulus cells were then selected for maturation. Around 50 cumulus oocyte complexes were place in a well containing 500 μL of maturation medium, TCM 199 (Invitrogen, Grand Island, N.Y.) with 3.05 mM glucose, 0.91 mM sodium pyruvate, 0.57 mM cysteine, 10 ng/mL epidermal growth factor (EGF), 0.5 mg/mL luteinizing hormone (LH), 0.5 mg/mL follicle stimulating hormone (FSH), 10 ng/mL gentamicin (APP Pharm, Schaumburg, Ill.), and 0.1% polyvinyl alcohol (PVA) for 42-44 hr at 38.5° C., 5% CO2, in humidified air. […] At the end of the maturation, the surrounding cumulus cells were removed from the oocytes by vortexing for 3 min in the presence of 0.1% hyaluronidase. Oocytes with a visible polar body were selected in manipulation medium (TCM199 with 0.6 mM NaHCO3, 2.9 mM Hepes, 30 mM NaCl, 10 ng/mL gentamicin, and 3 mg/mL bovine serum albumin [BSA]; and osmolarity of 305) and then used for the experiments. Different oocyte activation methods were used for the experiments. As conventional activation methods, either electrical or chemical activation was used. For electrical activation, mature oocytes were activated in activation medium (0.3 M mannitol, 1.0 mM CaCl2, 0.1 mM MgCl2, and 0.5 mM Hepes) by two direct-current (DC) pulses (1-sec interval) at 1.2 kV/cm for 30 μsec (using BTX Electro Cell Manipulator, Harvard Apparatus, Holliston, Mass.). […] For TPEN mediated activation, mature oocytes were incubated in TL-Hepes media with various concentrations of TPEN for different durations. […] At the end of the culture, where applicable, the frequency of cleaved embryos and blastocysts, and total cell number in the blastocysts were recorded. Hoechst 33342 (1.2 mg/mL) was used to stain nuclei and the embryos were then evaluated by epi-fluorescence microscopy. […] The ability of TPEN as the main activating reagent was therefore tested. […] Then the oocytes were incubated with various concentrations (1 μM, 5 μM, 10 μM, 100 μM and 200 μM) and durations (10 minutes, 20 minutes, 30 minutes, 1 hour, 2 hours, and overnight) of TPEN. […] Optimal oocyte activation was observed when oocytes were activated by a smaller Ca^2+ signal followed by incubating in 200 μM TPEN for 30 min.

Structure (SMILES): c1ccc(CN(CCN(Cc2ccccn2)Cc2ccccn2)Cc2ccccn2)nc1 [TPEN, N,N,N′,N′-tetrakis(2-pyridylmethyl)ethane-1,2-diamine]
- Day 6 blastocyst formation (SCNT embryos): 25.8% (8/31)
- Day 7 blastocyst formation (SCNT embryos): 35.5% (11/31)
- intracellular Ca2+ increase (MII oocytes): does not induce a Ca^2+ increase; also recorded: no Ca^2+ increase was detected
- Result of embryo transfer ([1]; SCNT + 5 μM TPEN, 30 min + Scriptaid): 2 normal piglets were and Cycled
- Result of embryo transfer ([1]; SCNT + 5 μM TPEN, 30 min, no Scriptaid): 2 normal piglets were and Cycled
- Result of embryo transfer ([1]; SCNT + 10 μM TPEN, 10 min + Scriptaid): Cycled
- toxicity to SCNT embryos, full term development ([1]; embryo transfers of TPEN treated SCNT embryos): not toxic to the SCNT embryos
- cell numbers in day 7 blastocysts (porcine oocytes; 1 μM TPEN overnight): 24.80±7.84
- number of blastocysts at day 6 and 7 (porcine oocytes; 1 μM TPEN overnight): increased number of blastocysts
- cell numbers in day 7 blastocysts (porcine oocytes; 10 μM TPEN for 1 hour): 30.17±5.97
- cell numbers in day 7 blastocysts (porcine oocytes; 10 μM TPEN for 2 hours): 29.63±10.47
- cell numbers in day 7 blastocysts (porcine oocytes; 100 μM TPEN for 20 minutes): 50.75±17.94
- Day 6 Blastocysts (%) (porcine oocytes; then TPEN 10 μM, 30 min): 0% and 0^b %
- Day 7 Blastocysts (%) (porcine oocytes; then TPEN 10 μM, 30 min): 5^b %
- Day 6 Blastocysts (%) (porcine oocytes; then TPEN 10 μM, 1 hour): 15^a %
- Day 7 Blastocysts (%) (porcine oocytes; then TPEN 10 μM, 1 hour): 22.5^a %
- Day 6 Blastocysts (%) (porcine oocytes; then TPEN 10 μM, 2 hours): 15^a %
- Day 7 Blastocysts (%) (porcine oocytes; then TPEN 10 μM, 2 hours): 25^a %
- Day 6 Blastocysts (%) (porcine oocytes; then TPEN 100 μM, 10 min): 15^a %
- Day 7 Blastocysts (%) (porcine oocytes; then TPEN 100 μM, 10 min): 15^a %
- Day 6 Blastocysts (%) (porcine oocytes; then TPEN 100 μM, 20 min): 25^a %
- Day 7 Blastocysts (%) (porcine oocytes; then TPEN 100 μM, 20 min): 30^a %
- Day 6 Blastocysts (%) (porcine oocytes; then TPEN 200 μM, 30 min): 37.04^c %
- Day 7 Blastocysts (%) (porcine oocytes; then TPEN 200 μM, 30 min): 41.98^c %
- Day 6 Blastocysts (%) (porcine oocytes; then TPEN 200 μM, 1 hour): 18.75^a %
- Day 7 Blastocysts (%) (porcine oocytes; then TPEN 200 μM, 1 hour): 27.5^a %
